Experimental data as given in patent US11260108B2, “MIC-1 and GLP-1 for use in the treatment of obesity” (Novo Nordisk A/S, priority 2017, dated 2022).

System: male obese Sprague Dawley rats
Experiment: Body weight lowering in obese rat, MIC-1-HSA in combination with semaglutide (Example 2)
Assay type: in vivo
Description: The purpose of the study in example 2 was to investigate effects of a MIC-1-HSA compound in combination with the GLP-1 compound semaglutide on body weight lowering in obese rat.
60 male obese Sprague Dawley rats from Taconic were used. Animals where housed 2 per cage and had ad libitum access to high-fat diet (45 kcal % fat, Research Diets Inc, diet 12451). Mean starting body weight was 736.0 g (634.7-982.4 g). Animals were randomised into 6 groups based on body weight (n=10). Animals were housed in reversed light cycle (dark 11:00-23:00). Vehicle and semaglutide were dosed subcutaneously (SC) once daily (QD) for the duration of the study (study day 0-26) at 10 am. Because of the immunogenic properties of MIC-1-HSA in rodents, the dosing period with MIC-1-HSA was limited to 12 days. MIC-1-HSA was dosed SC every other day, starting at study day 15 and ending at day 26. The two compounds were in all cases dosed individually and were not administrated in the same formulation using the same syringe.
Due to a long in vivo terminal half-life of MIC-1 HSA (˜50 hrs in lean rat) animals were dosed with a bolus dose at day 15 and subsequent doses of MIC-1-HSA were reduced to compensate for the protracted half-life to achieve a stable plasma exposure during the study. […] Dose volume was adjusted to daily body weight. Please see table 3.
The dose of Semaglutide was 2 nmol/kg and was selected in order to achieve a therapeutic relevant pharmaco-dynamic effect.
From day −1 and during the entire dosing period until day 26, body weight was monitored daily prior to dosing.
The dosing was performed using insulin syringe and a dosing volume of 1 ml/kg (2.3 ml/kg for bolus dose of MIC-1-HSA).
In table 4 are shown pharmacodynamic effects expressed as changes in body weights of obese rats in response to the 6 treatment arms. Data are expressed as the average values as grams (A) and as percentages (B). “Delta 0-26” is the change in body weight from day 0 to day 26. “vs vehicle” is the change in body weight at day 26 in comparison with the vehicle group at day 26. “Predicted” is the expected change in body weight based on body weight changes in the associated MIC-1-HSA and semaglutide mono-therapy arms. “Synergy” expresses the unexpected and additional effect beyond the predicted effect of the MIC-1-HSA and semaglutide combination. This value is calculated by subtracting the predicted value from the actual effect of the combination (vs vehicle). A negative synergy value reflects an additional unexpected synergistic body weight lowering effect.

[1] = Sema 2 nmol/kg, change day 0 to day 26
[2] = Sema 2 nmol/kg, day 26 vs vehicle group

## N6.26-{18-[N-(17-carboxyheptadecanoyl)-L-γ-glutamyl]-10-oxo-3,6,12,15-tetraoxa-9,18-diazaoctadecanoyl}-[8-(2-amino-2-propanoic acid),34-L-arginine]human glucagon-like peptide 1(7-37) [Sema]
Sema 2 nmol/kg SC QD day 0-26
  Body weight [% of study start] Study end: 95 % of study start
  Body weight [gram] Study end: 746 gram
[1]
  Body weight [% of study start] Delta 0-26: −5.4 % of study start
  Body weight [gram] Delta 0-26: −41.8 gram
[2]
  Body weight [% of study start] vs vehicle: −8.0 % of study start
  Body weight [gram] vs vehicle: −62.2 gram
Semaglutide monotherapy 2 nmol/kg, day 26
  reduced body weight compared to vehicle: 8.0%
